Each structure is given as a SMILES string.

Drawing on patent US11230526B1, “Cylcoalkenyl derivatives useful as agonists of the GPR120 and/or GPR40 receptors” (Janssen Pharmaceutica NV, priority 2018, dated 2022), this text covers EC50 for 31 compounds.

One assay has as its target T1, human GPR40 (Homo sapiens, UniProt O14842).
T1 construct: expressed in transfected cells
Put plainly: GPR40 calcium flux assay, human GPR40. Conditions: HEK293 cells stably expressing GPR40; table does not say human or rat. The class given is cell-based. A digest of the protocol:
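Cells preincubated 1 h at 37° C. in HBSS, 20 mM HEPES, 0.1% BSA, then Fluo 8 calcium dye 30 min at 37° C. and 15 min at room temperature.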
Background: Calcium flux is commonly read through the fluorescence of an indicator in the cells.

A further assay concerns the target T2, Human GPR120 short form (Homo sapiens, UniProt Q5NUL3).
T2 construct: expressed in transfected cells
T2 sequence (Q5NUL3 1-361): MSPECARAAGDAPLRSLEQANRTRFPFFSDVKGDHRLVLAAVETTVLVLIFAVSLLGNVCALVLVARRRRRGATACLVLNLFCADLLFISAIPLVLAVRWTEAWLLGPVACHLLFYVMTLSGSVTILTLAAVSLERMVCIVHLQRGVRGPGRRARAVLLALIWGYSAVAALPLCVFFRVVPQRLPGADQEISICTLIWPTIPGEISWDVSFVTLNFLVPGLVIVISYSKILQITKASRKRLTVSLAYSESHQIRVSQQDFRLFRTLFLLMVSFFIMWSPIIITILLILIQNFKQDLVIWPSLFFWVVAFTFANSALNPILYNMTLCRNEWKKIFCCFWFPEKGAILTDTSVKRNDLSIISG
Briefly: Human GPR120 calcium flux assay, Procedure Calcium B (4200 cells/well). The class given is cell-based. A digest of the protocol:
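HEK293 cells stably expressing human GPR120 (NM_001195755.1), 4200 cells/well, starved 1 h and loaded with Fluo-4 NW plus probenecid. Ligand-evoked calcium flux read on FLIPR for 300 s after a 10 s baseline. RFU = Fmax−Fmin; EC50 from four-parameter concentration-response fit.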

T1 sequence (O14842 whole entry): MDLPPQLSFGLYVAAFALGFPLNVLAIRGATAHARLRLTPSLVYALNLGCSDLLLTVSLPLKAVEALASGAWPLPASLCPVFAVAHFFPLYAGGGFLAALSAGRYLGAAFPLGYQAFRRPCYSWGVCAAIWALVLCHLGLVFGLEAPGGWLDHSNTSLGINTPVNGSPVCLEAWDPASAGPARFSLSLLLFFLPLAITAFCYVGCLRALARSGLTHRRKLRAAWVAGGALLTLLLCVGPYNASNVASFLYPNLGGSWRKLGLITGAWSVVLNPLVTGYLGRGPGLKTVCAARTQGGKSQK

Regarding `O=C(O)CCc1ccc(OCC2=C(C3CCC(F)(F)CC3)CCC2)cc1` [Compound 412, 3-[4-[[2-(4,4-difluorocyclohexyl)cyclopenten-1-yl]methoxy]phenyl]Propanoic Acid], the results for the EC50 at human GPR40 and on Human GPR120 short form were 513 nM and 4650 nM, respectively.
The like results for `Cc1c(CCC(=O)O)ccc(OCC2=C(C3CCC(F)(F)CC3)CCC2)c1C` [Compound 413, 3-[4-[[2-(4,4-difluorocyclohexyl)cyclopenten-1-yl]methoxy]-2,3-dimethyl-phenyl]Propanoic Acid] were, in that order, more than 10000 nM and 1800 nM.
For `O=C(O)CCc1ccc(OCC2=C(C3CCOCC3)CCC2)cc1C(F)(F)F` [Compound 415, 3-[4-[(2-tetrahydropyran-4-ylcyclopenten-1-yl)methoxy]-2-(trifluoromethyl)phenyl]Propanoic Acid] the same measures were 132 nM and more than 5000 nM.
For `O=C(O)CCc1ccc(OCC2=C(C3CCC(F)(F)CC3)CCC2)cc1C(F)(F)F` [Compound 416, 3-[4-[[2-(4,4-difluorocyclohexyl)cyclopenten-1-yl]methoxy]-2-(trifluoromethyl)phenyl]Propanoic Acid] the same measures were 94 nM and more than 5000 nM.
`Cc1cc(OCC2=C(C3CCC(F)(F)CC3)CCC2)c(F)cc1CCC(=O)O` [Compound 417, 3-[4-[[2-(4,4-difluorocyclohexyl)cyclopenten-1-yl]methoxy]-5-fluoro-2-methyl-phenyl]Propanoic Acid]: the results for the EC50 on human GPR40 and on Human GPR120 short form were 1010 nM and more than 5000 nM, respectively.
For `O=C(O)CCc1ccc(OCC2=C(C3CCOCC3)CCC2)cc1Cl` [Compound 418, 3-[2-chloro-4-[(2-tetrahydropyran-4-ylcyclopenten-1-yl)methoxy]phenyl]Propanoic Acid] the same measures were 171 nM and more than 5000 nM.
The like results for `O=C(O)CCc1cc(F)c(OCC2=C(C3CCC(F)(F)CC3)CCC2)c(F)c1` [Compound 419, 3-[4-[[2-(4,4-difluorocyclohexyl)cyclopenten-1-yl]methoxy]-3,5-difluoro-phenyl]Propanoic Acid] were, in that order, more than 10000 nM and 3170 nM.
For the compound `O=C(O)CCc1ccc(OCC2=C(C3CCCC3)CCC2)cc1Br` [Compound 421, 3-[2-bromo-4-[(2-cyclopentylcyclopenten-1-yl)methoxy]phenyl]Propanoic Acid], the results for the EC50 at human GPR40 and on Human GPR120 short form were 25 nM and 222 nM, respectively.
The like results for `Cc1cc(OCC2=C(C3CCCC3)CCC2)ccc1CCC(=O)O` [Compound 422, 3-[4-[(2-cyclopentylcyclopenten-1-yl)methoxy]-2-methyl-phenyl]Propanoic Acid] were, in that order, 48 nM and 177 nM.
The like results for `CCc1cc(OCC2=C(C3CCCC3)CCC2)ccc1CCC(=O)O` [Compound 423, 3-[4-[(2-cyclopentylcyclopenten-1-yl)methoxy]-2-ethyl-phenyl]Propanoic Acid] were, in that order, 61 nM and 272 nM.
For `Cc1cc(OCC2=C(C3CCCC3)CCC2)c(F)cc1CCC(=O)O` [Compound 424, 3-[4-[(2-cyclopentylcyclopenten-1-yl)methoxy]-5-fluoro-2-methyl-phenyl]Propanoic Acid] the same measures were 248 nM and 245 nM.
On to `O=C(O)CCc1ccc(OCC2=C(C3CCCC3)CCC2)c(F)c1` [Compound 425, 3-[4-[(2-cyclopentylcyclopenten-1-yl)methoxy]-3-fluoro-phenyl]Propanoic Acid], for which the half-maximal effective concentration (EC50) (usually the midpoint of the concentration-response curve) is 3230 nM on human GPR40 and 143 nM at Human GPR120 short form.
Turning to `O=C(O)CCc1ccc(OCC2=C(C3CCCC3)CCC2)cc1F` [Compound 426, 3-[4-[(2-cyclopentylcyclopenten-1-yl)methoxy]-2-fluoro-phenyl]Propanoic Acid], the EC50 at human GPR40 is 82 nM; at Human GPR120 short form, 200 nM.
For `O=C(O)CCc1ccc(OCC2=C(C3CCCC3)CCC2)cc1Cl` [Compound 428, 3-[2-chloro-4-[(2-cyclopentylcyclopenten-1-yl)methoxy]phenyl]Propanoic Acid] the same measures were 48 nM and 256 nM.
The like results for `O=C(O)CCc1ccc(OCC2=C(C3(F)CCC3)CC(F)(F)C2)cc1C(F)(F)F` [Compound 429, 3-[4-[[4,4-difluoro-2-(1-fluorocyclobutyl)cyclopenten-1-yl]methoxy]-2-(trifluoromethyl)phenyl]Propanoic Acid] were, in that order, 89 nM and 844 nM.
For `O=C(O)CCc1ccc(OCC2=C(C3CCC3)CC(F)(F)C2)cc1Cl` [Compound 430, 3-[2-chloro-4-[(2-cyclobutyl-4,4-difluoro-cyclopenten-1-yl)methoxy]phenyl]Propanoic Acid] the same measures were 46 nM and 335 nM.
As to `Cc1c(CCC(=O)O)ccc(OCC2=C(C3CCCC3)CCC2)c1F` [Compound 431, 3-[4-[(2-cyclopentylcyclopenten-1-yl)methoxy]-3-fluoro-2-methyl-phenyl]Propanoic Acid], the 50% effective concentration (EC50) on human GPR40 is more than 10000 nM; at Human GPR120 short form, 59 nM.
The like results for `Cc1c(CCC(=O)O)ccc(OCC2=C(C3CCCC3)CCC2)c1C` [Compound 432, 3-[4-[(2-cyclopentylcyclopenten-1-yl)methoxy]-2,3-dimethyl-phenyl]Propanoic Acid] were, in that order, more than 10000 nM and 44 nM.
For `O=C(O)CCc1cc(F)c(OCC2=C(C3CCCC3)CCC2)cc1C(F)(F)F` [Compound 433, 3-[4-[(2-cyclopentylcyclopenten-1-yl)methoxy]-5-fluoro-2-(trifluoromethyl)phenyl]Propanoic Acid] the same measures were more than 10000 nM and more than 5000 nM.
In the case of `COc1cc(OCC2=C(C3CCCC3)CCC2)ccc1CCC(=O)O` [Compound 434, 3-[4-[(2-cyclopentylcyclopenten-1-yl)methoxy]-2-methoxy-phenyl]Propanoic Acid], the figures for the EC50 at human GPR40 and at Human GPR120 short form were 59 nM and 387 nM, respectively.
Consider `O=C(O)CCc1ccc(OCC2=C(C3CCCC3)CCC2)c(F)c1C(F)(F)F` [Compound 435, 3-[4-[(2-cyclopentylcyclopenten-1-yl)methoxy]-3-fluoro-2-(trifluoromethyl)phenyl]Propanoic Acid], for which the 50% effective concentration (EC50) on human GPR40 was more than 10000 nM; at Human GPR120 short form it was more than 5000 nM.
The like results for `O=C(O)CCc1cc(F)c(OCC2=C(C3CCCC3)CCC2)c(F)c1` [Compound 436] were, in that order, more than 10000 nM and 159 nM.
With `O=C(O)CCc1ccc(OCC2=C(Cc3ccccc3F)CCC2)cc1Cl` [Compound 438, 3-[2-chloro-4-[[2-[(2-fluorophenyl)methyl]cyclopenten-1-yl]methoxy]phenyl]Propanoic Acid], the EC50 at human GPR40 worked out at 138 nM; at Human GPR120 short form, 3340 nM.
The like results for `O=C(O)CCc1c(F)cc(OCC2=C(C3CCCC3)CCC2)cc1C(F)(F)F` [Compound 439, 3-[4-[(2-cyclopentylcyclopenten-1-yl)methoxy]-2-fluoro-6-(trifluoromethyl)phenyl]Propanoic Acid] were, in that order, more than 10000 nM and more than 5000 nM.
For `O=C(O)CCc1ccc(OCC2=C(Cc3nccs3)CCC2)cc1C(F)(F)F` [Compound 440, 3-[4-[[2-(thiazol-2-ylmethyl)cyclopenten-1-yl]methoxy]-2-(trifluoromethyl)phenyl]Propanoic Acid] the same measures were 382 nM and 2800 nM.
The like results for `Cc1cc(OCC2=C(C3CCCC3)CC(F)(F)C2)ccc1CCC(=O)O` [Compound 441, 3-[4-[(2-cyclopentyl-4,4-difluoro-cyclopenten-1-yl)methoxy]-2-methyl-phenyl]Propanoic Acid] were, in that order, 35 nM and 100 nM.
For `C=Cc1cc(OCC2=C(C3CCCC3)CCC2)ccc1CCC(=O)O` [Compound 442, 3-[4-[(2-cyclopentylcyclopenten-1-yl)methoxy]-2-vinyl-phenyl]Propanoic Acid], the EC50 on human GPR40 is 48 nM; at Human GPR120 short form, 334 nM.
As to `CC(O)c1cc(OCC2=C(C3CCCC3)CCC2)ccc1CCC(=O)O` (centres unmarked) [Compound 443, 3-[4-[(2-cyclopentylcyclopenten-1-yl)methoxy]-2-(1-hydroxyethyl)phenyl]Propanoic Acid], the EC50 on human GPR40 is 1580 nM; on Human GPR120 short form, more than 5000 nM.
For `O=C(O)CCc1ccc(OCC2=C(C3CCCC3)CCC2)cc1C1CC1` [Compound 444, 3-[4-[(2-cyclopentylcyclopenten-1-yl)methoxy]-2-cyclopropyl-phenyl]Propanoic Acid] the same measures were 174 nM and 319 nM.
The like results for `O=C(O)CCc1ccc(OCC2=C(Cc3nccs3)CCC2)cc1Cl` [Compound 445, 3-[2-chloro-4-[[2-(thiazol-2-ylmethyl)cyclopenten-1-yl]methoxy]phenyl]Propanoic Acid] were, in that order, 266 nM and 3540 nM.
The like results for `O=C(O)CCc1ccc(OCC2=C(C3CCCC3)CCC2)cc1C(F)(F)C(F)(F)F` [Compound 446, 3-[4-[(2-cyclopentylcyclopenten-1-yl)methoxy]-2-(1,1,2,2,2-pentafluoroethyl)phenyl]Propanoic Acid] were, in that order, 458 nM and 828 nM.
